Reference: patent publication US20070167509A1, “Use of phenserine and analogs to treat behavioral problems and improve trainability” (priority 2005, published 2007)

How the values were obtained:
Type in all cases: in vivo
aged dogs = assay: CP-118,954 study of DNMP performance, counter-balanced within-subject design
middle-aged beagle dogs = assay: delayed-non-matching-to-sample task (DNMS), recognition memory; details: 0.5 mg/kg dose
Procedure: The present study assessed the effects of a 0.5 mg/kg dose of phenserine in middle-aged dogs tested on a recognition memory task.
Six middle-aged beagle dogs (4 female and 2 male) served as subjects. Dogs were divided equally into 2 groups matched for performance on their most recent 10 sessions on the delayed-non-matching-to-sample task (DNMS; (Callahan et al., 2000). One group was administered phenserine (0.5 mg/kg) via capsule in a meatball and the second group served as control. Animals were tested one-hour after drug administration and were tested on a total of 20 test sessions.
To examine the effects of phenserine on DNMS performance, mean performance over groups of five test sessions was analyzed (see e.g., FIG. 1).

senior beagle dogs [1] = assay: relearning of the delayed-non-matching-to-position task (DNMP); details: N=4
Procedure: Five male and two female senior beagle dogs (M+S.D.=14.60+1.46 years) served as subjects (Table 1). Dogs were divided into two groups matched on their most recent DNMP performance; the first group (N=4) was administered phenserine (0.5 mg/kg) via capsule in a meatball and the second group (N=3) was administered a placebo meatball. Dogs received a five-day wash-in period prior to study initiation and were administered their respective treatments 1-hour prior to DNMP testing. Dogs were trained initially on the DNMP using a 5-s delay until a 2-stage criterion was passed. The first stage required animals to achieve a score of 11/12 on one day, a score of 10/12 over two consecutive days, or a score of 29/36 over three consecutive days. Subsequently, the dogs were required to achieve a score of 26/36 over the following three days to pass the second stage.

senior beagle dogs [2] = assay: variable-delay DNMP under scopolamine / saline challenge; details: scopolamine 15 μg/kg SC, 20-s (p=0.038) and 80-s (p=0.082) delays
Procedure: Following relearning of the DNMP, dogs were tested on a variable-delay paradigm in which delays of 20 and 80 s were used. The delays occurred equally among the trials in a daily test session. We have previously shown that the 15-μg/kg dose selectively impairs DNMP performance (Araujo et al., 2004a). The dogs were first divided into two groups, one that was administered phenserine and the other received a placebo control. All subjects were given a 5-day stabilization period and then tested under scopolamine (15 μg/kg, SC) and saline (SC), administered 45 min prior to testing, over two test days separated by a treatment washout day. One day following the second treatment day, animals were removed from phenserine or placebo treatments and re-tested on the stabilization days and under scopolamine and saline treatment as indicated above.

`O=C1Cc2cc3c(CCC4CCN(Cc5ccccc5)CC4)noc3cc2N1` [CP-118,954] was tested, and the DNMP performance (aged dogs) was “no significant improvement”.

In the case of `CN1CC[C@@]2(C)c3cc(OC(=O)Nc4ccccc4)ccc3N(C)[C@@H]12` [phenserine, (−)-phenylcarbamoyleseroline], the adverse effects (middle-aged beagle dogs) is reported as “No obvious adverse effects”, the “mean errors to relearn the DNMP (M+SEM)” value (senior beagle dogs [1]; 0.5 mg/kg via capsule 1 hour prior to testing, 5-s delay, placebo 14.33+6.98) is reported as 5.25+0.85 errors and the “fewer errors compared to the most previous relearning rates (M+SEM)” value (senior beagle dogs [1]; 0.5 mg/kg, placebo group showed more errors (6.33+9.53)) is reported as 5.00+4.51 errors.

`CN1[C@@H]2C[C@@H](OC(=O)[C@H](CO)c3ccccc3)C[C@H]1[C@@H]1O[C@@H]12` [scopolamine] was tested, and the “DNMP performance of the placebo group after treatment with scopolamine” value (senior beagle dogs [2]) was “performance deficits”.
